# Experimental data from patent publication US20110065669A1, “OXAZOLOBENZIMIDAZOLE DERIVATIVES” (Merck Sharp & Dohme Corp., priority 2008, published 2011).
# Biological target: T1, recombinant human mGluR2 (Homo sapiens, UniProt Q14416)
# T1 construct: expressed in transfected cells
# Test: FLIPR assay (Ca2+ mobilization), potentiation of the mGluR2 receptor
# Type: cell-based
# Details: CHO dhfr- cells expressing human mGluR2 and Gα16; potentiation after EC20 glutamate (900 nM)
# Description: Inhibition constants are determined as follows. The compounds of the present invention may be tested in a […] (FLIPR) based assay. This assay is a common functional assay to monitor Ca^2+ mobilization in whole cells expressing recombinant receptor coupled with a promiscuous G-protein. CHO dhfr-cells stably expressing recombinant human mGluR2 and Gα16 loaded with Fluo-4 AM (Invitrogen, Carlsbad Calif.) are treated with dose responses of compounds and the Ca^2+ response is monitored on a FLIPR384 (Molecular Devices, Sunnydale Calif.) for agonist activity. The potentiation response is monitored after a subsequent addition of an EC20 concentration of glutamate (900 nM). The maximum calcium response at each concentration of compound for agonist or potentiation are plotted as dose responses and the curves are fitted with a four parameters logistic equation giving EC50 and Hill coefficient using the iterative non linear curve fitting software program.
# T1 sequence (Q14416 19-872): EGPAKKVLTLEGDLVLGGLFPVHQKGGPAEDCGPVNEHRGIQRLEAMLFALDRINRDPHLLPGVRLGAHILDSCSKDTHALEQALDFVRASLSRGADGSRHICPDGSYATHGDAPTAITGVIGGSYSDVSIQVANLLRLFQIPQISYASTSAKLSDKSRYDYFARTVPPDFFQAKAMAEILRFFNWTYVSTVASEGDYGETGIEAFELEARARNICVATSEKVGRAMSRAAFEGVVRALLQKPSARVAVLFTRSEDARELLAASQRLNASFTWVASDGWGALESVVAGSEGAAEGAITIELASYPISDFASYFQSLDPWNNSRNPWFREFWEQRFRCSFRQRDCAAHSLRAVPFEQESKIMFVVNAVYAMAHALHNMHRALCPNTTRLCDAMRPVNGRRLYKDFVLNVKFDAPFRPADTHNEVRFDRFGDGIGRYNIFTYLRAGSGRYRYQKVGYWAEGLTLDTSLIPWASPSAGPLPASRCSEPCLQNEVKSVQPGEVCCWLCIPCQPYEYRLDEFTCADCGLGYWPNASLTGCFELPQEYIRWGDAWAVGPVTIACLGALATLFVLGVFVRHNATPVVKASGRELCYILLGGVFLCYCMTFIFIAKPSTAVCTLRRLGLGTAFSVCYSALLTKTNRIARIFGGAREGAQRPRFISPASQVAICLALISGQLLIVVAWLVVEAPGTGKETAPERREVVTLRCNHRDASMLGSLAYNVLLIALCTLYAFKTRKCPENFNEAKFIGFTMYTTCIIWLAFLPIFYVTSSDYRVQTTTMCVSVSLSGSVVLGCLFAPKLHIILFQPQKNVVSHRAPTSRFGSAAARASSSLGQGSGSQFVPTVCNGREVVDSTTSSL
row,EC50 [nM],Compound
1,11,"CC(C)(C)c1ccc(OC[C@@H]2Cn3c(nc4ccccc43)O2)cc1 [Example 1-4, (2S)-2-[(4-tert-butylphenoxy)methyl]-2,3-dihydro[1,3]oxazolo[3,2-a]benzimidazole]"
2,522,"CC(=O)c1cccc(OC[C@@H]2Cn3c(nc4ccccc43)O2)c1 [Example 1-5, 1-{3-[(2S)-2,3-dihydro[1,3]oxazolo[3,2-a]benzimidazol-2-ylmethoxy]phenyl}ethanone]"
3,137,"Cn1nccc1-c1ccc(OC[C@@H]2Cn3c(nc4ccccc43)O2)cc1 [Example 2-1, (2S)-2-{[4-(1-methyl-1H-pyrazol-5-yl)phenoxy]methyl}-2,3-dihydro[1,3]oxazolo[3,2-a]benzimidazole]"
4,12,"CC(C)(c1ccc(OC[C@@H]2Cn3c(nc4ccccc43)O2)cc1)C(F)(F)F [Example 3-5, (2S)-2-{[4-(2,2,2-trifluoro-1,1-dimethylethyl)phenoxy]methyl}-2,3-dihydro[1,3]oxazolo[3,2-a]benzimidazole]"
5,37,"Clc1cccc(OC[C@@H]2Cn3c(nc4ccccc43)O2)c1 [Example 3-9, (2S)-2-[(3-chlorophenoxy)methyl]-2,3-dihydro[1,3]oxazolo[3,2-a]benzimidazole]"
6,235,"c1ccc(OC[C@@H]2Cn3c(nc4ccccc43)O2)cc1 [Example 3-20, (2S)-2-(phenoxymethyl)-2,3-dihydro[1,3]oxazolo[3,2-a]benzimidazole, reference compound]"

row,Compound,EC50 [nM]
1,"C[Si](C)(C)c1ccc(OC[C@@H]2Cn3c(nc4ccccc43)O2)cc1 [Example 4-1, (2S)-2-{[4-(trimethylsilyl)phenoxy]methyl}-2,3-dihydro[1,3]oxazolo[3,2-a]benzimidazole]",27
